{"source": "patent US5334456A", "about": "“Free-radical curable compositions” (priority 1992, dated 1994)", "key": {"[1]": {"assay": "Inhalation Kill (animals)", "assay_type": "in vivo", "conditions": "Table XVI", "experimental": "Toxicity tests were performed on commercially available (meth) acrylate oligomers and diluents and on commercially available vinyl ether and maleate diluents."}, "[2]": {"assay": "not given", "remark": "listed apart in the source"}, "[3]": {"assay": "Viscosity (Brookfield viscometer)", "assay_type": "physicochemical", "conditions": "25° C., product as prepared"}}, "note": "Counter-ions that a name gives are not always drawn. Like-named read-outs stand apart in the source and are kept apart here."}
{"compound": "C=CC(=O)OCCCCCCOC(=O)C=C", "note": "[1,6-hexanediol diacrylate]", "values": [{"measurement": "Inhalation Kill", "setting": "[1]", "result": "0 of 6"}, {"measurement": "Skin Irritation", "setting": "Table XVI, max. = 8", "result": 3}, {"measurement": "Eye Irritation", "setting": "[2]; Table XVI, max. = 10", "result": 2}]}
{"compound": "C=CC(=O)OCCO", "note": "[2-hydroxyethyl acrylate]", "values": [{"measurement": "Inhalation Kill", "setting": "[1]", "result": "1 of 6"}, {"measurement": "Skin Irritation", "setting": "Table XVI, max. = 8", "result": 6}, {"measurement": "Eye Irritation", "setting": "[2]; Table XVI, max. = 10", "result": 9}]}
{"compound": "C=CC(=O)OCCOc1ccccc1", "note": "[2-phenoxyethyl acrylate]", "values": [{"measurement": "Inhalation Kill", "setting": "[1]", "result": "0 of 6"}, {"measurement": "Skin Irritation", "setting": "Table XVI, max. = 8", "result": 3}, {"measurement": "Eye Irritation", "setting": "[2]; Table XVI, max. = 10", "result": 1}]}
{"compound": "CCOC(=O)/C=C\\C(=O)OCC", "note": "[Diethyl maleate]", "values": [{"measurement": "Skin Irritation", "setting": "Table XVI, max. = 8", "result": "mild"}, {"measurement": "Eye Irritation", "setting": "[2]; Table XVI, max. = 10", "result": "mild"}]}
{"compound": "C=CC(=O)OCCOCCOC(=O)C=C", "note": "[Diethyleneglycol diacrylate]", "values": [{"measurement": "Inhalation Kill", "setting": "[1]", "result": "0 of 6"}, {"measurement": "Skin Irritation", "setting": "Table XVI, max. = 8", "result": 5}, {"measurement": "Eye Irritation", "setting": "[2]; Table XVI, max. = 10", "result": 9}]}
{"compound": "COC(=O)/C=C\\C(=O)OC", "note": "[Dimethyl maleate]", "values": [{"measurement": "Skin Irritation", "setting": "in vivo", "result": 5.47}, {"measurement": "Eye Irritation", "setting": "[2]; in vivo", "result": "moderate"}]}
{"compound": "CCCCOC(=O)/C=C\\C(=O)OCCCC", "note": "[Dubutyl maleate]", "values": [{"measurement": "Skin Irritation", "setting": "Table XVI, max. = 8", "result": "mild"}]}
{"compound": "C=COCCCCOC(=O)/C=C\\C(=O)OCC", "note": "[Example 1, 4-vinyloxybutyl ethyl maleate]", "values": [{"measurement": "viscosity", "setting": "[3]", "result": "about 36 cP"}, {"measurement": "viscosity", "setting": "[3]; listed as Component 3", "result": 36, "unit": "cP"}]}
{"compound": "C=CC(=O)OCC(C)(C)COC(=O)C=C", "note": "[Neopentylglycol diacrylate]", "values": [{"measurement": "Inhalation Kill", "setting": "[1]", "result": "1 of 6"}, {"measurement": "Skin Irritation", "setting": "Table XVI, max. = 8", "result": 5}, {"measurement": "Eye Irritation", "setting": "[2]; Table XVI, max. = 10", "result": 8}]}
{"compound": "C=CC(=O)OCC(CO)(COC(=O)C=C)COC(=O)C=C", "note": "[Pentaerythritol triacrylate]", "values": [{"measurement": "Inhalation Kill", "setting": "[1]", "result": "0 of 6"}, {"measurement": "Skin Irritation", "setting": "Table XVI, max. = 8", "result": 2}, {"measurement": "Eye Irritation", "setting": "[2]; Table XVI, max. = 10", "result": 10}]}
